One series addresses LasB (Pseudomonas aeruginosa (strain ATCC 15692 / DSM 22644 / CIP 104116 / JCM 14847 / LMG 12228 / 1C / PRS 101 / PAO1), UniProt P14756). The series can be described thus: In vitro LasB activity assay (fluorogenic substrate). It is filed as biochemical. The following applies: LasB 0.3 nM, substrate 150 μM, mean ± SD. The essentials:
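LasB (0.3 nM) preincubated 15 min at 37 °C with compound, then 150 µM Abz-Ala-Gly-Leu-Ala-p-nitrobenzylamide added in 50 mM Tris pH 7.2, 2.5 mM CaCl2, 0.075% Pluronic F-127, 5% DMSO. Fluorescence (ex 340, em 415 nm) followed 60 min at 37 °C. IC50 from blank-corrected v/v0 slopes, nonlinear regression, Hill slope fixed at 1.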

A short description of series [1]: Kinetic turbidimetric solubility assay. It is filed as physicochemical. The following applies: PBS, aqueous buffer, kinetic from dmso stock. How it is done:
The desired compounds were sequentially diluted in DMSO in a 96-well plate. 1.5 μL of each well were transferred into another 96-well plate and mixed with 148.5 μL of PBS. Plates were shaken for 5 min at 600 rpm at room temperature, and the absorbance at 620 nm was measured. Absorbance values were normalized by blank subtraction and plotted using GraphPad Prism 8.4.2 (GraphPad Software, San Diego, CA, USA). Solubility (S) was determined based on the First X value of AUC function using a threshold of 0.005.

A further series in a line: in vitro. Type of series: in vitro ADME. To be noted: mouse, s9. How it is done: For the evaluation of combined phase I and phase II metabolic stability, the compound (1 μM) was incubated with 1 mg/mL pooled liver S9 fraction (Xenotech), 2 mM NADPH, 1 mM UDPGA, 10 mM MgCl2, 5 mM GSH and 0.1 mM PAPS at 37° C. for 0, 5, 15, 30 and 60 min. The metabolic stability of Testosterone (1 μM), verapamil (1 μM) and ketoconazol (1 μM) were determined in parallel to confirm the enzymatic activity of the S9 fraction. The incubation was stopped by precipitation of S9 enzymes with 2 volumes of cold acetonitrile containing internal standard (150 nM Diphenhydramine). Samples were stored on ice for 10 min and precipitated protein was removed by centrifugation (15 min, 4° C., 4,000 rpm). The remaining test compound at different time points was analyzed by LC-MS/MS (TSQ Quantum Access MAX, Thermo Fisher, Dreieich, Germany) and used to determine half-life (t½).

For the next series, the target named is purified LasB (Pseudomonas aeruginosa (strain ATCC 15692 / DSM 22644 / CIP 104116 / JCM 14847 / LMG 12228 / 1C / PRS 101 / PAO1), UniProt P14756). The series can be described thus: Ex vivo lung homogenate assay with purified LasB. It is filed as biochemical. How it is done: The lung homogenate was prepared from pig lung, which was stored at −80° C. After thawing the lung tissue was cut into pieces of approximately 1.5 cm diameter and 0.5 to 1 cm thickness. Subsequently the bits were flash frozen in liquid nitrogen and lyophilized for 48 h.
1.2 g dried tissue was then ball milled using an IKA Tube Drive and the respective 50 mL ball milling tubes. 20 steel balls were used with target rpm of 6000, reversing the spinning direction every 30 seconds for a total of 10 min. After 10 min the tube was detached and inverted to loosen the powder. The ball milling was repeated with the same setup twice again.
To the powdery tissue 50 mL of a 10 mM Tris buffer including 2 mM CaCl2 with a pH of 8.0 was added and the IKA Tube Drive used again with the same settings as described before for 10 min to disperse the tissue powder in the aqueous buffer. The yielded lung homogenate was pipetted into 15 mL falcons and stored at −80° C. until further use.
To perform the LasB activity/inhibition assay a compound dilution was prepared in DMSO yielding a 100 fold concentration of the final concentration in the assay. LasB was diluted from a higher stock solution to a 6 μM stock in the same buffer as used for the lung homogenate. The assay was performed in Eppis. With a stepper pipette 10 μL of the prepared LasB solution was added to the Eppis to yield a final protein concentration of 300 nM. Then 188 μL of thawed lung homogenate was added with a stepper pipette. Finally, 2 μL of the 100 fold compound dilutions were added and mixed by pipetting up and down. The Eppis were incubated at 37° C. with a shaking speed of 1000 rpm for 4 h.
After 4 h, the Eppis were centrifuged at a speed of 14,000 rpm, 4° C. for 10 min to separate the soluble cleaved Elastin fragments from the non-cleaved insoluble part. 100 μL of the obtained supernatant was transferred to new Eppis, and the same volume of concentrated hydrochloric acid added. […]
Peak areas and response ratios were calculated using Xcalibur Quan browser with Amprolium set as internal standard. […]

Read-outs that look alike come from different tables or passages of the source. Some results are limits rather than exact numbers.

purified LasB, sequence (P14756 198-498): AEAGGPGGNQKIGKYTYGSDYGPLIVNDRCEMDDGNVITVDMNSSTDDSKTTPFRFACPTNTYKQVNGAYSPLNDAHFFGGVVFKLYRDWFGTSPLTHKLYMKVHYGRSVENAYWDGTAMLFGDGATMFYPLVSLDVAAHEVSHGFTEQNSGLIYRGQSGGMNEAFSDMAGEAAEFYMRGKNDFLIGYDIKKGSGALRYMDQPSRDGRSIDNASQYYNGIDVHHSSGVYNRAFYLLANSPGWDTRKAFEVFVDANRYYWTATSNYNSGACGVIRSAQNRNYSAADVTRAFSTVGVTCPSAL
LasB, sequence (P14756 198-498): as above

As a reminder, the IC50 is the point on the concentration scale where inhibition reaches its midpoint. As a reminder, the solubility is the dissolved amount per volume that the medium holds. Read a high solubility as a readily soluble substance. Usually half-life stands for the time in which the quantity being followed falls by half. High values mean slow decline, low ones rapid decline. In the case of `CC(C)CC(C(=O)NO)C(=O)Nc1ccc(Cn2cc(CNS(=O)(=O)c3ccc(Cl)cc3)nn2)cc1` (stereo not drawn) [Compound 161, N-[4-[[4-[[(4-Chlorophenyl)sulfonylamino]methyl]triazol-1-yl]methyl]phenyl]-2-(hydroxycarbamoyl)-4-methyl-pentanamide], the IC50 against LasB is 1.7 ± 0.1 nM; at purified LasB it was 186 nM. This compound registered a solubility at 5 min in series [1] of over 200 µM. Also, the half-life at 1 μM in “in vitro” is 33.9 ± 1 min.

For `CC(C)C(C(=O)NO)C(=O)Nc1ccc(Cn2cc(CNS(=O)(=O)c3ccc(I)cc3)nn2)cc1` (stereo not drawn) [Compound 182, 2-(Hydroxycarbamoyl)-N-[4-[[4-[[(4-iodophenyl)sulfonylamino]methyl]triazol-1-yl]methyl]phenyl]-3-methyl-butanamide], the IC50 against LasB is 1.9 ± 0.1 nM; on purified LasB (pig lung homogenate, 300 nM LasB, 4 h, desmosine LC-MSMS, read-out: IC50 ex vivo lung homogenate) it was 127 nM.
